Source: patent US5451508A, “Method and monoclonal antibodies for vitamin B12 determination” (Boehringer Mannheim GmbH, priority 1989, dated 1995)

Tested on: monoclonal antibody MAB 1 and MAB 2
Assay: ELISA determination of the cross-reaction of vitamin B12 derivatives with the monoclonal antibodies
Assay type: binding, mice
Settings: for cross-reactivity: monoclonal antibodies according to the invention (e.g. from cell lines ECACC 88101301 and ECACC 88101302), stated in description; for cross-reaction: values identical for MAB 1 and MAB 2, antigen added at 50, 500, 5000 μg/ml, calculated from concentrations giving 50% of max. signal
Experimental: The plates are re-treated for 10 minutes with 0.9% sodium chloride solution and 1% albumin solution. Subsequently they are washed with 0.9% sodium chloride solution.
Afterwards they are incubated at 37° C. for one hour with 100 μl sample and washed again with 0.9% sodium chloride solution. In order to test the cross-reaction 50, 500 and 5000 μg/ml of the vitamin B12 derivative to be tested is added to the sample solution. A reduction of the measured signal in the presence of the derivative indicates a cross-reaction. A further incubation follows (1 hour, 37° C.) with 450 U/ml of a sheep-Fab-anti-mouse Fcγ peroxidase conjugate. After washing once again with 0.9% sodium chloride the peroxidase activity is determined in the usual way (for example with 2,2'azino-di-[3-ethylbenzthiazoline sulphonate (6)] (ABTS®), 30 minutes at room temperature, the difference in absorbance ΔmA is read at 422 nm).
The antigen to be tested for cross-reaction is added in increasing concentrations (50 μg/ml, 500 μg/ml, 5000 μg/ml) to the monoclonal antibody. Afterwards the cross-reaction is calculated from the following formula: [formula]

Compound | cross-reactivity | cross-reaction
2-hydroxy-5,6-dimethylbenzimidazolyl-cobamide | 1.5% | 1.5
Purinylcobinamide | 1.1% | 1.1
(carboxy(2-cyanamino-4,5-dimethylphenyl)-amino)-cobamide | 0.07% | 0.07
C/C1=C2/[N-][C@H]([C@H](CC(N)=O)[C@@]2(C)CCC(=O)NC[C@@H](C)OP(=O)([O-])O[C@H]2[C@@H](O)[C@@H](n3cnc4cc(C)c(C)cc43)O[C@@H]2CO)[C@]2(C)N=C(/C(C)=C3N=C(/C=C4N=C1[C@@H](CCC(N)=O)C\4(C)C)[C@@H](CCC(N)=O)[C@]\3(C)CC(N)=O)[C@@H](CCC(N)=O)[C@]2(C)CC(N)=O.[CH3-].[Co+3] [Methylcobalamin] | 100% | 100
Cobyrinic acid-diamide | < 0.05% | < 0.05
